The structures appear in SMILES notation. In brackets after ≈: the same amount, converted by molar mass.

Assay [1] concerns Escherichia coli. Put plainly: Antibacterial activity against Escherichia coli at 100 ug/mL. Particulars: read-out: IZ. The format is functional.
Assay [2] relates to Aspergillus flavus. Put plainly: Antifungal activity against Aspergillus flavus at 100 ug/mL. The format is functional. The note with it: read-out: IZ.
Assay [3] concerns Bacillus subtilis. Put plainly: Antibacterial activity against Bacillus subtilis. In kind it is functional.
Assay [4] relates to Penicillium citrinum. Briefly: Antifungal activity against Penicillium citrinum at 50 ug/mL. Particulars: read-out: IZ. The format is functional.
In assay [5] the test system is Bacillus subtilis. Briefly: Antibacterial activity against Bacillus subtilis at 100 ug/mL. The format is functional. Particulars: read-out: IZ.
Assay [6] concerns Penicillium citrinum. Put plainly: Antifungal activity against Penicillium citrinum at 100 ug/mL. The format is functional. The note with it: read-out: IZ.
Assay [7] deals with Escherichia coli. Put plainly: Antibacterial activity against Escherichia coli. In kind it is functional.
Assay [8] deals with Aspergillus flavus. Briefly: Antifungal activity against Aspergillus flavus at 50 ug/mL. In kind it is functional. The note with it: read-out: IZ.
Assay [9] relates to Penicillium citrinum. Put plainly: Antifungal activity against Penicillium citrinum. In kind it is functional.
Assay [10] concerns Bacillus subtilis. Briefly: Antibacterial activity against Bacillus subtilis at 50 ug/mL. In kind it is functional. The note with it: read-out: IZ.
Assay [11] concerns Salmonella typhi. Briefly: Antibacterial activity against Salmonella typhi at 100 ug/mL. The note with it: read-out: IZ.
In assay [12] the test system is Aspergillus flavus. Briefly: Antifungal activity against Aspergillus flavus. In kind it is functional.
Assay [13] concerns Fusarium oxysporum. Put plainly: Antifungal activity against Fusarium oxysporum at 100 ug/mL. In kind it is functional. Particulars: read-out: IZ.
Assay [14] has as its system Fusarium oxysporum. Put plainly: Antifungal activity against Fusarium oxysporum at 50 ug/mL. In kind it is functional. The note with it: read-out: IZ.
The test system of assay [15] is Salmonella typhi. Put plainly: Antibacterial activity against Salmonella typhi at 50 ug/mL. The note with it: read-out: IZ.
Assay [16] concerns Escherichia coli. Put plainly: Antibacterial activity against Escherichia coli at 50 ug/mL. The format is functional. The note with it: read-out: IZ.
Assay [17] deals with Fusarium oxysporum. Put plainly: Antifungal activity against Fusarium oxysporum. In kind it is functional.
Assay [18] concerns Salmonella typhi. Put plainly: Antibacterial activity against Salmonella typhi.

For the compound `O=C(Cn1ncc2cc([N+](=O)[O-])ccc21)NN1C(=O)CSC1c1ccc(Cl)cc1` (centres undefined), the zone of inhibition at 100 µg/mL in [1] came to 25.6 mm; in assay [2], 25 mm; in [5] it was 23.7 mm; in [6], 24.4 mm; in assay [11] it was 23.9 mm; in [13] it was 25.8 mm. Further, the MIC (in general, the smallest concentration in the dilution series that meets the test's criterion for growth inhibition) in assay [3] is 16 µg/mL (≈ 37 µM); in assay [7], 13 µg/mL (≈ 30.1 µM); in [9], 17 µg/mL (≈ 39.4 µM); in [12], 13 µg/mL (≈ 30.1 µM); in assay [17], 11 µg/mL (≈ 25.5 µM); in [18], 15 µg/mL (≈ 34.7 µM). The zone of inhibition at 50 µg/mL in assay [4] came out at 20.2 mm; in assay [8], 22.3 mm; in assay [10], 18.8 mm; in assay [14] it was 22.9 mm; in assay [15], 20 mm; in assay [16], 22.3 mm.
For the compound `O=C(Cn1ncc2cc([N+](=O)[O-])ccc21)NN1C(=O)CSC1c1ccccc1Br` (centres undefined), the zone of inhibition at 100 µg/mL worked out at 21.8 mm in [1]; 21.7 mm in [2]; 20.5 mm in assay [5]; 21 mm in assay [6]; 21 mm in assay [11]; 22.6 mm in assay [13]. Further, the MIC came out at 20 µg/mL (≈ 42 µM) in assay [3]; 17 µg/mL (≈ 35.7 µM) in [7]; 20 µg/mL (≈ 42 µM) in [9]; 17 µg/mL (≈ 35.7 µM) in assay [12]; 13 µg/mL (≈ 27.3 µM) in assay [17]; 17 µg/mL (≈ 35.7 µM) in assay [18]. In addition, the zone of inhibition at 50 µg/mL in assay [4] stood at 17.2 mm; in assay [8] it was 18.8 mm; in [10], 16 mm; in [14], 19.8 mm; in [15], 17.2 mm; in assay [16], 19.2 mm.
Turning to `O=C(Cn1ncc2cc([N+](=O)[O-])ccc21)NN1C(=O)CSC1c1cccc(Br)c1` (centres undefined), the zone of inhibition at 100 µg/mL in assay [1] amounted to 23 mm; in assay [2], 22.8 mm; in assay [5] it was 21.4 mm; in assay [6] it was 22 mm; in [11] it was 21.9 mm; in assay [13], 23.7 mm. Further, the MIC in assay [3] is 18 µg/mL (≈ 37.8 µM); in [7], 15 µg/mL (≈ 31.5 µM); in assay [9], 20 µg/mL (≈ 42 µM); in assay [12], 17 µg/mL (≈ 35.7 µM); in assay [17], 13 µg/mL (≈ 27.3 µM); in assay [18], 17 µg/mL (≈ 35.7 µM). In addition, the zone of inhibition at 50 µg/mL stood at 18 mm in assay [4]; 20 mm in assay [8]; 16.9 mm in assay [10]; 20.8 mm in [14]; 18 mm in assay [15]; 20.2 mm in assay [16].
On to `O=C(Cn1ncc2cc([N+](=O)[O-])ccc21)NN1C(=O)CSC1c1ccccc1[N+](=O)[O-]` (centres undefined), for which the zone of inhibition at 100 µg/mL came out at 26.9 mm in assay [1]; 26.1 mm in assay [2]; 25.5 mm in [5]; 25.6 mm in [6]; 25 mm in assay [11]; 27 mm in [13]. The MIC turned out to be 15 µg/mL (≈ 33.9 µM) in [3]; 11 µg/mL (≈ 24.9 µM) in assay [7]; 15 µg/mL (≈ 33.9 µM) in [9]; 11 µg/mL (≈ 24.9 µM) in assay [12]; 9 µg/mL (≈ 20.3 µM) in [17]; 13 µg/mL (≈ 29.4 µM) in [18]. Also, the zone of inhibition at 50 µg/mL in assay [4] was found to be 21.4 mm; in [8], 23.6 mm; in [10] it was 20 mm; in assay [14] it was 24.2 mm; in [15], 21.2 mm; in [16], 23.5 mm.
`O=C(Cn1ncc2cc([N+](=O)[O-])ccc21)NN1C(=O)CSC1c1cccc([N+](=O)[O-])c1` (centres undefined): the zone of inhibition at 100 µg/mL in [1] turned out to be 28 mm; in assay [2], 27 mm; in [5], 26.1 mm; in assay [6], 26.5 mm; in assay [11], 25.8 mm; in [13], 28.4 mm. The MIC came to 15 µg/mL (≈ 33.9 µM) in assay [3]; 10 µg/mL (≈ 22.6 µM) in assay [7]; 14 µg/mL (≈ 31.6 µM) in [9]; 11 µg/mL (≈ 24.9 µM) in assay [12]; 8 µg/mL (≈ 18.1 µM) in assay [17]; 12 µg/mL (≈ 27.1 µM) in [18]. For the same compound, the zone of inhibition at 50 µg/mL in assay [4] amounted to 22.3 mm; in assay [8], 24.7 mm; in assay [10], 21 mm; in assay [14] it was 25.1 mm; in assay [15], 22 mm; in assay [16], 24.6 mm.
Regarding `COc1ccccc1C1SCC(=O)N1NC(=O)Cn1ncc2cc([N+](=O)[O-])ccc21` (centres undefined), the zone of inhibition at 100 µg/mL was found to be 17.2 mm in assay [1]; 16.8 mm in assay [2]; 15 mm in [5]; 16 mm in assay [6]; 16.1 mm in [11]; 18 mm in assay [13]. Further, the MIC was 30 µg/mL (≈ 70.2 µM) in [3]; 20 µg/mL (≈ 46.8 µM) in assay [7]; 28 µg/mL (≈ 65.5 µM) in assay [9]; 20 µg/mL (≈ 46.8 µM) in assay [12]; 17 µg/mL (≈ 39.8 µM) in [17]; 22 µg/mL (≈ 51.5 µM) in assay [18]. In addition, the zone of inhibition at 50 µg/mL in assay [4] was determined as 12.5 mm; in assay [8] it was 13.9 mm; in [10] it was 11.5 mm; in [14], 15 mm; in [15], 13 mm; in assay [16] it was 14.8 mm.
On to `COc1ccc(C2SCC(=O)N2NC(=O)Cn2ncc3cc([N+](=O)[O-])ccc32)cc1` (centres undefined), for which the zone of inhibition at 100 µg/mL in assay [1] turned out to be 18 mm; in assay [2], 17.7 mm; in [5] it was 16 mm; in assay [6], 17 mm; in [11] it was 17 mm; in [13], 18.9 mm. The MIC in assay [3] was 25 µg/mL (≈ 58.5 µM); in assay [7] it was 20 µg/mL (≈ 46.8 µM); in [9], 28 µg/mL (≈ 65.5 µM); in assay [12], 19 µg/mL (≈ 44.5 µM); in assay [17], 15 µg/mL (≈ 35.1 µM); in assay [18], 20 µg/mL (≈ 46.8 µM). Further, the zone of inhibition at 50 µg/mL in assay [4] worked out at 13.6 mm; in [8] it was 14.8 mm; in assay [10], 12.4 mm; in assay [14], 16 mm; in assay [15], 13.8 mm; in [16] it was 16 mm.
Consider `Cc1ccc(C2SCC(=O)N2NC(=O)Cn2ncc3cc([N+](=O)[O-])ccc32)cc1` (centres undefined), for which the zone of inhibition at 100 µg/mL was 14.8 mm in [1]; 14 mm in [2]; 12.2 mm in assay [5]; 13.2 mm in [6]; 13.3 mm in assay [11]; 15.4 mm in [13]. The MIC worked out at 40 µg/mL (≈ 97.2 µM) in [3]; 25 µg/mL (≈ 60.8 µM) in assay [7]; 32 µg/mL (≈ 77.8 µM) in [9]; 23 µg/mL (≈ 55.9 µM) in assay [12]; 20 µg/mL (≈ 48.6 µM) in assay [17]; 30 µg/mL (≈ 72.9 µM) in [18]. The zone of inhibition at 50 µg/mL is 10 mm in assay [4]; 11.1 mm in [8]; 9 mm in assay [10]; 12.9 mm in assay [14]; 10.1 mm in [15]; 12 mm in [16].

The record behind these values is ChEMBL document CHEMBL1240428, “Conventional and microwave assisted synthesis of some new N-[(4-oxo-2-substituted aryl -1, 3-thiazolidine)-acetamidyl]-5-nitroindazoles and its antimicrobial activity” (2010).
